Legend:
[1] = test system: rabbit platelet-rich plasma; assay: inhibition of collagen-induced platelet aggregation; assay type: cell-based; conditions: 10^-4 M, 0.02N NaOH, 3 minute incubation
Experimental: The activity was evaluated after a 3 minute incubation of a mixture of the platelet aggregation inhibitor and rabbit platelet-rich plasma. […] Accordingly,the relative potency of inhibition of the test compound to aspirin (RASP) at the same concentration was chosen as a direct measure of inhibition potency.

[2] = test system: carrageenin-induced hind paw edema; assay: anti-inflammatory activity, carrageenin-induced hind paw edema; assay type: in vivo, rat (male Wistar); conditions: for number of positive rats: inhibition of 25% or more vs control at 3 hours; for ED50: Rattus norvegicus, po, carrageenin edema, positive = inhibition of 25% or more at 3 hours
Experimental: The anti-inflammatory activity of the compounds against carrageenin-inducededema was determined according to procedure described in C. A. Winter et al., Proc. Soc. Exp. Biol. Med., 111, 544 (1962). Male Wistar rats, each weighing 100 to 120 g were used. Hind paw edema was induced by sub-cutaneous injection of 0.1 ml of 1% carrageenin solution into the left foot pad of each rat. Hind paw volume was measured before and after challenge of carrageenin by immersion of the hind paw down to the lateral malleolus into a glass cylinder containing water. Each dose of the test compound was orally administered one hour before challenge of carrageenin.
ED50 -value was calculated from the number of positive animals showing an inhibitory activity of 25% or more than the matched control group at 3 hours after carrageenin challenge.

[3] = test system: phenylquinone-induced writhing; assay: analgesic activity, Phenylquinone-Writhing Syndrome method; assay type: in vivo, mouse (ddN strain); conditions: for number of positive mice: fewer writhings than half of control; for ED50: Mus musculus, po, phenylquinone writhing, positive = fewer writhings than half of control
Experimental: Analgesic activity was determined according to the Phenylquinone-Writhing Syndrome method. ddN strain mice, each weighing about 18 to 22 g were used. Chemical pain was induced by an intraperitoneal injection of 0.1 ml/10 g body weight of 0.03% phenylquinone in 5% aqueous ethanol into the mice. The number of writhings was measured for 15 minutes from 5 minutes after challenge of phenylquinone. Each dose of the drug was given 30 minutes before challenge of phenylquinone.
Ed50 -value was calculated from the number of positive animals showing fewer writhings than half of the matched control group.

[4] = Farmaco. Edizione Scientifica, 11, 167 (1956); cited from earlier work

## CC(C(=O)O)c1ccc(/C=C/c2cccs2)cc1 (stereo not drawn) [XG-28, (E)-2-[p-(β-2-Thienylvinyl)phenyl]propionic Acid]
[1]
  RASP (relative potency of inhibition of the test compound to aspirin): 1.6
[2]; 1 mg/kg p.o., 2 hours
  Hind Paw Swelling, Mean ± S.E.: 73.7 ± 3.7%
  Percent Inhibition of hind paw swelling: 2.4%
[2]; 1 mg/kg p.o., 3 hours
  Hind Paw Swelling, Mean ± S.E.: 73.9 ± 2.6%
  Percent Inhibition of hind paw swelling: -1.0%
[2]; 1 mg/kg p.o.
  number of positive rats: 0
[2]; 2.5 mg/kg p.o., 2 hours
  Hind Paw Swelling, Mean ± S.E.: 67.0 ± 2.6%
  Percent Inhibition of hind paw swelling: 11.3%
[2]; 2.5 mg/kg p.o., 3 hours
  Hind Paw Swelling, Mean ± S.E.: 70.12 ± 2.1%
  Percent Inhibition of hind paw swelling: 4.0%
[2]; 2.5 mg/kg p.o.
  number of positive rats: 0
[2]; 5 mg/kg p.o., 2 hours
  Hind Paw Swelling, Mean ± S.E.: 62.9 ± 3.2%
  Percent Inhibition of hind paw swelling: 16.8%
[2]; 5 mg/kg p.o., 3 hours
  Hind Paw Swelling, Mean ± S.E.: 68.2 ± 2.7%
  Percent Inhibition of hind paw swelling: 6.7%
[2]; 5 mg/kg p.o.
  number of positive rats: 1
[2]; 10 mg/kg p.o., 2 hours
  Hind Paw Swelling, Mean ± S.E.: 60.5 ± 2.3%
  Percent Inhibition of hind paw swelling: 19.8%
[2]; 10 mg/kg p.o., 3 hours
  Hind Paw Swelling, Mean ± S.E.: 65.7 ± 2.0%
  Percent Inhibition of hind paw swelling: 10.1%
[2]; 10 mg/kg p.o.
  number of positive rats: 0
[2]; 20 mg/kg p.o., 2 hours
  Hind Paw Swelling, Mean ± S.E.: 50.7 ± 3.7%
  Percent Inhibition of hind paw swelling: 33.6%
[2]; 20 mg/kg p.o., 3 hours
  Hind Paw Swelling, Mean ± S.E.: 56.0 ± 4.1%
  Percent Inhibition of hind paw swelling: 25.2%
[2]; 20 mg/kg p.o.
  number of positive rats: 6
[2]; 40 mg/kg p.o., 2 hours
  Hind Paw Swelling, Mean ± S.E.: 46.8 ± 2.6%
  Percent Inhibition of hind paw swelling: 38.7%
[2]; 40 mg/kg p.o., 3 hours
  Hind Paw Swelling, Mean ± S.E.: 48.6 ± 3.1%
  Percent Inhibition of hind paw swelling: 35.1%
[2]; 40 mg/kg p.o.
  number of positive rats: 8
[2]; 80 mg/kg p.o., 2 hours
  Hind Paw Swelling, Mean ± S.E.: 49.8 ± 2.6%
  Percent Inhibition of hind paw swelling: 31.3%
[2]; 80 mg/kg p.o., 3 hours
  Hind Paw Swelling, Mean ± S.E.: 49.3± 2.8%
  Percent Inhibition of hind paw swelling: 30.9%
[2]; 80 mg/kg p.o.
  number of positive rats: 7
[2]
  ED50: 23.3 mg/kg
[3]; 0.5 mg/kg p.o.
  Inhibition in (%) of writhing: 13.5%
  Number of Writhings/15 min., Mean ± S.E.: 16.8 ± 2.1
  number of positive mice: 1
[3]; 5 mg/kg p.o.
  Inhibition in (%) of writhing: 25.8%
  Number of Writhings/15 min., Mean ± S.E.: 14.4 ± 6.0
  number of positive mice: 2
[3]; 10 mg/kg p.o.
  Inhibition in (%) of writhing: 29.4%
  Number of Writhings/15 min., Mean ± S.E.: 13.7 ± 2.4
  number of positive mice: 2
[3]; 25 mg/kg p.o.
  Inhibition in (%) of writhing: 71.1%
  Number of Writhings/15 min., Mean ± S.E.: 5.6 ± 1.8
  number of positive mice: 7
[3]; 50 mg/kg p.o.
  Inhibition in (%) of writhing: 52.1%
  Number of Writhings/15 min., Mean ± S.E.: 9.3 ± 1.6
  number of positive mice: 4
[3]; 100 mg/kg p.o.
  Inhibition in (%) of writhing: 63.9%
  Number of Writhings/15 min., Mean ± S.E.: 7.0 ± 2.0
  number of positive mice: 9
[3]; 200 mg/kg p.o.
  Inhibition in (%) of writhing: 60.3%
  Number of Writhings/15 min., Mean ± S.E.: 7.7 ± 1.2
  number of positive mice: 5
[3]
  ED50: 14.1 mg/kg

## CC(C)Cc1ccc(CC(=O)O)cc1 [p-Isobutylphenylacetic acid, reference compound]
[1]
  RASP (relative potency of inhibition of the test compound to aspirin): 0.5

## CC(C)Cc1ccc(C(C)C(=O)O)cc1 (stereo not shown) [Ibuprofen, 2-(p-isobutylphenyl)propionic acid, reference compound]
[1]
  RASP (relative potency of inhibition of the test compound to aspirin): 0.6
[2]; 10 mg/kg p.o., 2 hours
  Hind Paw Swelling, Mean ± S.E.: 57.4 ± 3.9%
  Percent Inhibition of hind paw swelling: 13.6%
[2]; 10 mg/kg p.o., 3 hours
  Hind Paw Swelling, Mean ± S.E.: 60.8 ± 4.7%
  Percent Inhibition of hind paw swelling: 15.5%
[2]; 10 mg/kg p.o.
  number of positive rats: 1
[2]; 20 mg/kg p.o., 2 hours
  Hind Paw Swelling, Mean ± S.E.: 52.6 ± 3.4%
  Percent Inhibition of hind paw swelling: 20.9%
[2]; 20 mg/kg p.o., 3 hours
  Hind Paw Swelling, Mean ± S.E.: 56.2 ± 2.7%
  Percent Inhibition of hind paw swelling: 21.9%
[2]; 20 mg/kg p.o.
  number of positive rats: 4
[2]; 40 mg/kg p.o., 2 hours
  Hind Paw Swelling, Mean ± S.E.: 47.5 ± 4.0%
  Percent Inhibition of hind paw swelling: 28.6%
[2]; 40 mg/kg p.o., 3 hours
  Hind Paw Swelling, Mean ± S.E.: 51.2 ± 4.0%
  Percent Inhibition of hind paw swelling: 28.9%
[2]; 40 mg/kg p.o.
  number of positive rats: 7
[2]; 80 mg/kg p.o., 2 hours
  Hind Paw Swelling, Mean ± S.E.: 41.8 ± 2.3%
  Percent Inhibition of hind paw swelling: 37.2%
[2]; 80 mg/kg p.o., 3 hours
  Hind Paw Swelling, Mean ± S.E.: 43.9 ± 2.4%
  Percent Inhibition of hind paw swelling: 38.9%
[2]; 80 mg/kg p.o.
  number of positive rats: 9
[2]
  ED50: 24.3 mg/kg
[3]; 25 mg/kg p.o.
  Inhibition in (%) of writhing: 25.5%
  Number of Writhings/15 min., Mean ± S.E.: 27.4 ± 3.3
  number of positive mice: 2
[3]; 50 mg/kg p.o.
  Inhibition in (%) of writhing: 45.7%
  Number of Writhings/15 min., Mean ± S.E.: 20.0 ± 1.5
  number of positive mice: 4
[3]; 100 mg/kg p.o.
  Inhibition in (%) of writhing: 64.4%
  Number of Writhings/15 min., Mean ± S.E.: 13.1 ± 1.9
  number of positive mice: 8
[3]; 200 mg/kg p.o.
  Inhibition in (%) of writhing: 76.4%
  Number of Writhings/15 min., Mean ± S.E.: 8.7 ± 1.6
  number of positive mice: 10
[3]; 400 mg/kg p.o.
  Inhibition in (%) of writhing: 94.8%
  Number of Writhings/15 min., Mean ± S.E.: 1.9 ± 0.8
  number of positive mice: 10
[3]
  ED50: 50 mg/kg

## O=C(O)Cc1ccc(C=Cc2ccccc2)cc1 [4-stilbene-acetic acid]
[4]
  anti-cholesterinemic activity: anti-cholesterinemic activity

## O=C(O)Cc1ccc(/C=C/c2cccs2)cc1 [Example 4, (E)-p-(β-2-Thienylvinyl)phenylacetic Acid]
[1]
  RASP (relative potency of inhibition of the test compound to aspirin): 1.0
